The record followed here is ChEMBL document CHEMBL1134024, “Synthesis and structure-activity studies of side-chain derivatized arylhydantoins for investigation as androgen receptor radioligands” (Bioorg Med Chem Lett, 2001).

Each structure is given as a SMILES string.

By Ki is commonly meant the dissociation constant of the complex between target and ligand, obtained from inhibition or displacement. Read a low Ki as tighter binding.

One assay concerns the target T1, Androgen receptor (Rattus norvegicus, UniProt P15207).
T1 sequence (P15207 whole entry): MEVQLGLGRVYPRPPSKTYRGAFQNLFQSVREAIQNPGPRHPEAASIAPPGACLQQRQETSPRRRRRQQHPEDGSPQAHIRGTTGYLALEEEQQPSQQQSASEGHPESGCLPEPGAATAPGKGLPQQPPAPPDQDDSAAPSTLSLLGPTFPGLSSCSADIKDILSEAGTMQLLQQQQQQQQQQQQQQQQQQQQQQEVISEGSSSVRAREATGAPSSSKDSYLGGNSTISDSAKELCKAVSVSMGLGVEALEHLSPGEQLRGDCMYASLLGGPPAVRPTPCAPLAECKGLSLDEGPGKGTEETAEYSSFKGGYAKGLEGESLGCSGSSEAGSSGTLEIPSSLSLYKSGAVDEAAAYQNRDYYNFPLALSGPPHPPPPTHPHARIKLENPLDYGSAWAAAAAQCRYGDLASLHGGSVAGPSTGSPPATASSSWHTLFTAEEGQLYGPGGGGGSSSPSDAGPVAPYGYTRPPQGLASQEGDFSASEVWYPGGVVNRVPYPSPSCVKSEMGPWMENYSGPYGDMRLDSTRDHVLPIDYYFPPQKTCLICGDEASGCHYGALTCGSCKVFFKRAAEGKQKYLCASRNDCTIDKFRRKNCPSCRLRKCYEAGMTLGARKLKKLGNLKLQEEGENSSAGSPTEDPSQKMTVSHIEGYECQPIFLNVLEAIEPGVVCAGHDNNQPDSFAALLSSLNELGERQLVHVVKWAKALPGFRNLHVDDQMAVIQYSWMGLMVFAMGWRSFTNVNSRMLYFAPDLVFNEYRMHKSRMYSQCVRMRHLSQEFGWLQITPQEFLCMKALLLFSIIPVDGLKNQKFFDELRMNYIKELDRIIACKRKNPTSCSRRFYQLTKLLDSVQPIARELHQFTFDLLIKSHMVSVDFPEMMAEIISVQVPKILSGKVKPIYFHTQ
In words: Binding affinity against rat prostate cytosolic Androgen receptor using [3H]mibolerone as radioligand.

The target in assay [1] is T2, Androgen receptor (Rattus norvegicus) (UniProt P15207).
T2 sequence (whole entry): T1 sequence (P15207 whole entry)
The note with it: Prostate gland.
Description: Displacement of [3H]-mibolerone from rat prostate cytosolic Androgen receptor

At Androgen receptor, `CC1(C)C(=O)N(c2ccc(C#N)c(C(F)(F)F)c2)C(=O)N1CCCF` returned a Ki of 321 nM.
`CC1(C)C(=O)N(c2ccc(C#N)c(C(F)(F)F)c2)C(=O)N1CCc1cccc(I)c1`: the inhibition constant Ki on Androgen receptor was determined as 809 nM.
At Androgen receptor, `CC1(C)C(=O)N(c2ccc(C#N)c(C(F)(F)F)c2)C(=O)N1C/C=C/I` registered a Ki of 13 nM. This Ki lies about 62-fold lower than the previous one.
On the same count and under the same terms, under `CC1(C)C(=O)N(c2ccc(C#N)c(C(F)(F)F)c2)C(=O)N1CCCc1ccc(I)cc1` stands 65 nM; under `CC1(C)C(=O)N(c2ccc(C#N)c(C(F)(F)F)c2)C(=O)N1CCc1ccc(I)cc1`, 415 nM; under `CC1(C)C(=O)N(c2ccc(C#N)c(C(F)(F)F)c2)C(=O)N1CCF`, 141 nM.
Same read-out and setting: in the case of `CC1(C)C(=O)N(c2ccc(C#N)c(C(F)(F)F)c2)C(=O)N1Cc1cccc(I)c1` it was 123 nM.
In turn, `CC1(C)C(=O)N(c2ccc(C#N)c(C(F)(F)F)c2)C(=O)N1CCCCO` [RU-58841] registered an inhibition constant (Ki) at Androgen receptor of 26 nM. In assay [1], this compound displayed a Ka of 1.2 nM.
Regarding `CN1C(=O)N(c2ccc(C#N)c(C(F)(F)F)c2)C(=O)C1(C)C`, the Ki at Androgen receptor was 37 nM.
The same measure, in the same setting: in the case of `CC1(C)C(=O)N(c2ccc(C#N)c(C(F)(F)F)c2)C(=O)N1CCCc1cccc(I)c1` it was 360 nM.
Still for that read-out and setting: under `CC1(C)C(=O)N(c2ccc(C#N)c(C(F)(F)F)c2)C(=O)N1Cc1ccc(I)cc1` stands 150 nM; under `COCCN1C(=O)N(c2ccc(C#N)c(C(F)(F)F)c2)C(=O)C1(C)C`, 120 nM.
